{"source": "patent US9145352B2", "about": "“Quaternary N-(halomethyl) ammonium salts as therapeutic agents” (UNIVERSIDAD DE CALDAS, priority 2012, dated 2015)", "key": {"L. major promastigotes": {"tested_on": "L. major promastigotes", "conditions": "cited from earlier work"}, "[1]": {"tested_on": "axenic amastigotes of L. (V) panamensis", "experiment": "in vitro effectiveness against axenic amastigotes of L. (V) panamensis", "type": "cell-based", "source_text": "Then, a series of compounds analogous to compound 3 (characterized by a tail G being a diarylalkenyl moiety) were synthesized in order to assess their in vitro effectiveness against L. (V) panamensis, a pathogenic species which causes human mucocutaneous leishmaniasis. Other halogenated analogs of choline were also synthesized and included in this in vitro effectiveness study. FIG. 2 illustrates the compounds evaluated for their in vitro effectiveness against axenic amastigotes of L. (V) panamensis.\nThe table shown in FIG. 7 contains the EC50 values (molar amount of compound that kills 50% of parasites in sample) obtained against axenic amastigotes of L. (V) panamensis. […] N-(HALOMETHYL) AMMONIUM SALTS AS […] AGENTS were compared with the respective non-halogenated (i.e. N,N,N-trimethyl quaternary ammonium salts) and with two compounds commonly used to treat leishmaniasis (meglumine antimoniate and amphotericin B)."}, "[2]": {"tested_on": "amastigotes of L. (V) panamensis that have infected macrophage cells", "experiment": "in vitro effectiveness against L. (V) panamensis amastigotes that have infected macrophage cells", "type": "cell-based", "description": "Given that Leishmania parasites are known to infect monocyte cells, mostly macrophages and neutrophils, the in vitro effectiveness of some of the compounds was also tested on L. (V) panamensis in the amastigote stage that have been set to infect macrophage cells. FIG. 5 contains the list of compounds evaluated.\nOn the other hand, the results of the in vitro activity study of some […] N-(HALOMETHYL) AMMONIUM SALTS AS […] AGENTS shown in FIG. 5 against infected macrophage cells with Leishmania panamesis are shown in FIG. 8."}, "Indian visceral disease": {"tested_on": "Indian visceral disease", "conditions": "cited from earlier work"}, "[3]": {"tested_on": "cutaneous leishmaniasis lesion", "experiment": "golden hamster model for cutaneous leishmaniasis", "type": "in vivo", "conditions": "topical application in aqueous buffer (neutral pH) daily for ten days", "description": "It was decided then to carry out a preliminary in vivo animal study according to standard practices using the golden hamster model for cutaneous leishmaniasis, using the compounds with the better profile as therapeutic agents against leishmaniasis. For that purpose the in vivo effectiveness of compounds 3b, 13b and 14c were tested FIG. 6.\nIt was decided then to carry out a small in vivo animal study according to standard practices using the golden hamster model for cutaneous leishmaniasis. For that purpose the in vivo effectiveness of compounds 3b, 13b and 14c were tested. Treatment consisted of a topical application of the compound suspended in an aqueous buffer (neutral pH) daily for ten days."}, "[4]": {"tested_on": "promastigotes of L. tarentolae", "experiment": "in vitro uptake of choline by promastigotes", "type": "cell-based", "source_text": "(§1) Phosphatidyl choline can be synthesized by the parasite following the traditional Kennedy pathway (Zhang and Beverley, 2010), in which choline is converted to phosphatidyl choline via a sequence of steps, each catalyzed by a specific enzyme. The first step involves the phosphorylation of choline with the enzyme choline kinase."}, "[5]": {"tested_on": "choline kinase of L. (L) infantum", "experiment": "kinetic studies with choline kinase", "type": "biochemical", "conditions": "lowering its catalytic efficiency", "source_text": "as §1"}, "[6]": {"tested_on": "promastigotes of L. tarentolae", "experiment": "in vitro production of phosphatidyl choline by parasites", "type": "cell-based", "source_text": "as §1"}, "Chagas disease": {"tested_on": "Chagas disease", "conditions": "given soon after infection at the onset of the acute phase; cited from earlier work"}}, "note": "Where two headings read alike, the source gives them in different places.", "data": [{"compound": "CCCCCCCCCCCCCCCCCC[N+](C)(C)C.[Br-]", "note": "[octadecyltrimethyl ammonium bromide]", "values": [{"measurement": "growth of L. major promastigotes", "setting": "L. major promastigotes", "value": "inhibit the growth"}]}, {"compound": "CCCCCCCCCCCC[N+](C)(C)C.[Br-]", "note": "[dodecyltrimethyl ammonium bromide]", "values": [{"measurement": "growth of L. major promastigotes", "setting": "L. major promastigotes", "value": "inhibit the growth"}]}, {"compound": "C[C@@H]1[C@H](O)[C@@H](C)/C=C/C=C/C=C/C=C/C=C/C=C/C=C/[C@H](O[C@@H]2O[C@H](C)[C@@H](O)[C@H](N)[C@@H]2O)C[C@@H]2O[C@](O)(C[C@@H](O)C[C@@H](O)[C@H](O)CC[C@@H](O)C[C@@H](O)CC(=O)O[C@H]1C)C[C@H](O)[C@H]2C(=O)O", "note": "[amphotericin B]", "values": [{"measurement": "EC50", "setting": "[1]", "value": "0.041 ± 0.001", "unit": "µM"}, {"measurement": "EC50 against infected macrophage cells with L. (V) panamensis", "setting": "[2]", "value": "0.05 ± 0.001", "unit": "µg/mL"}, {"measurement": "effective against the Indian visceral disease", "setting": "Indian visceral disease; dose of 5-10 mg/kg", "value": 90, "unit": "%"}, {"measurement": "effective against the Indian visceral disease", "setting": "Indian visceral disease; total dose of 15 mg/kg body weight", "value": 100, "unit": "%"}]}, {"compound": "meglumine antimoniate", "values": [{"measurement": "EC50", "setting": "[1]", "value": "312 ± 18.6", "unit": "µM"}, {"measurement": "EC50 against infected macrophage cells with L. (V) panamensis", "setting": "[2]", "value": "6.33 ± 0.86", "unit": "µg/mL"}]}, {"compound": "C[N+](C)(CCl)CCC=C(c1ccccc1)c1ccccc1", "note": "[Compound 13b]", "values": [{"measurement": "cure of animals", "setting": "[3]", "value": "cure of the majority of the animals"}]}, {"compound": "C[N+](C)(CI)CCCCC=C(c1ccccc1)c1ccccc1", "note": "[Compound 14a]", "values": [{"measurement": "relative effectiveness against axenic amastigotes of L. (V) panamensis", "setting": "[1]; FIG. 7", "value": "the most effective"}, {"measurement": "uptake of choline by promastigotes", "setting": "[4]", "value": "interferes with the in vitro uptake of choline"}, {"measurement": "inhibition of choline kinase", "setting": "[5]", "value": "able to inhibit this enzyme"}, {"measurement": "production of phosphatidyl choline", "setting": "[6]", "value": "inhibits the in vitro production of phosphatidyl choline"}]}, {"compound": "O=C(Cn1ccnc1[N+](=O)[O-])NCc1ccccc1", "note": "[benznidazole]", "values": [{"measurement": "effective in curing the disease", "setting": "Chagas disease", "value": "~100", "unit": "%"}]}]}
